Assays:
Format in all cases: in vivo
[1] = Experiment 6 sensory evaluation of cyclic dipeptides, “top sharp saltiness”
Method: (§1) An aqueous solution in which the concentration of each of the cyclic dipeptides shown in the table described below is set to be the same as its concentration in the heat-treated coriander prepared in 1.1. described above, as estimated from the ratio of the peak area of the cyclic dipeptides to the peak area of the internal standard (47 μg/g of L-lysine-^13C6 monohydrochloride) (hereinafter referred to as “heat-treated coriander equivalent aqueous solution”) was prepared. An aqueous solution in which the concentration of each of the cyclic dipeptides is set to be the same as its concentration in the heat-treated paprika of Example 203 prepared in 2.1 described above (hereinafter referred to as “heat-treated paprika equivalent aqueous solution”) was also prepared. Cyclic dipeptides prepared by the applicant were used in this experiment. As a cyclic dipeptide comprising Leu/Ile, a mixture comprising equal parts of cyclic dipeptide comprising Leu and cyclic dipeptide comprising Ile was used.
(§2) Common and reduced-sodium curry rouxes were prepared according to the procedures described in (1) and (2) of 1.3. described above.
(§3) Two dispersions of 44 g of the aforesaid reduced-sodium curry roux dispersed in 300 g of hot water were prepared. To one of them was added the heat-treated coriander equivalent solution or heat-treated paprika equivalent aqueous solution of the individual cyclic dipeptides shown in the table described below so as to be in the final concentration of 0.5% (w/w) or 1.0% (w/w), respectively.
(§4) Forty-four grams of the aforesaid common curry roux was dispersed in 300 g of hot water.
(§5) The dispersion of reduced-sodium curry roux dispersed in hot water and the dispersion of common curry roux dispersed in hot water were used as comparative controls, and the strength of the flavor was evaluated by three evaluators on the basis of the following evaluation criteria from the viewpoint of “top sharp saltiness”, “middle fullness (enhanced thickness) and “boosting of last flavor (aftertaste).”
(§6) The average of the evaluated scores was defined as “F” when it was 1.0 or lower, “C” when it was 1.1 or higher and 1.9 or lower, “B” when it was 2.0 or higher and 2.5 or lower, “A” when it was 2.6 or higher and 2.9 or lower, and “AA” when it was 3.0 or higher.
(§7) In the table described below, “ID” refers to the compound ID described above. The items of “coriander 0.5%” and “coriander 1.0%” refer to the addition of the aforesaid heat-treated coriander equivalent aqueous solution of cyclic dipeptide so that the final concentrations may be 0.5% (w/w) and 1.0% (w/w), respectively. The items of “paprika 0.5%” and “paprika 1.0%” refer to the addition of the aforesaid heat-treated paprika equivalent aqueous solution of cyclic dipeptide so that the final concentration may be 0.5% (w/w) and 1.0% (w/w), respectively.

[2] = Experiment 6 sensory evaluation of cyclic dipeptides, “boosting of last flavor (aftertaste)”
Method: as §1, §2, §3, §4, §5, §6, §7

[3] = Experiment 6 sensory evaluation of cyclic dipeptides, “middle fullness (enhanced thickness)”
Method: as §1, §2, §3, §4, §5, §6, §7

[4] = Additive amount coriander 0.5% (heat-treated coriander equivalent aqueous solution, final 0.5% (w/w)), reduced-sodium curry roux
[5] = Additive amount coriander 0.5%, reduced-sodium curry roux
[6] = heat-treated coriander equivalent aqueous solution of cyclic dipeptide, final 1.0% (w/w) in reduced-sodium curry roux dispersion
[7] = heat-treated coriander equivalent aqueous solution of cyclic dipeptide, final 1.0% (w/w) in reduced-sodium curry roux dispersion, 3 evaluators
[8] = Additive amount paprika 0.5% (heat-treated paprika equivalent aqueous solution, final 0.5% (w/w)), reduced-sodium curry roux
[9] = Additive amount paprika 0.5%, reduced-sodium curry roux
[10] = heat-treated paprika equivalent aqueous solution of cyclic dipeptide, final 1.0% (w/w) in reduced-sodium curry roux dispersion
[11] = heat-treated paprika equivalent aqueous solution of cyclic dipeptide, final 1.0% (w/w) in reduced-sodium curry roux dispersion, 3 evaluators

Substance	Top sharp saltiness Average [1, 4] [points]	Top sharp saltiness Evaluation [1, 5]	Top sharp saltiness Evaluation [1, 6]	Top sharp saltiness Average [1, 7] [points]	Bosting of last flavor Average [2, 5] [points]	Bosting of last flavor Evaluation [2, 5]	Bosting of last flavor Evaluation [2, 6]	Bosting of last flavor Average [2, 7] [points]	Middle fullness Average [3, 5] [points]	Middle fullness Evaluation [3, 5]	Middle fullness Evaluation [3, 6]	Middle fullness Average [3, 7] [points]	Top sharp saltiness Average [1, 8] [points]	Top sharp saltiness Evaluation [1, 9]	Top sharp saltiness Evaluation [1, 10]	Top sharp saltiness Average [1, 11] [points]	Bosting of last flavor Average [2, 9] [points]	Bosting of last flavor Evaluation [2, 9]	Bosting of last flavor Evaluation [2, 10]	Bosting of last flavor Average [2, 11] [points]	also measured
cyclic (Glu-His) [Coriander ID 6]	3.2	AA (“AA” when it was 3.0 or higher)	AA (“AA” when it was 3.0 or higher)	4.0	3.0	AA (“AA” when it was 3.0 or higher)	AA (“AA” when it was 3.0 or higher)	3.7	3.3	AA (“AA” when it was 3.0 or higher)	AA (“AA” when it was 3.0 or higher)	3.8									
cyclic (Glu-Leu/Ile) [Coriander ID 47]	2.3	B (“B” when it was 2.0 or higher and 2.5 or lower)	B (“B” when it was 2.0 or higher and 2.5 or lower)	2.2	3.0	AA (“AA” when it was 3.0 or higher)	A (“A” when it was 2.6 or higher and 2.9 or lower)	2.7	2.8	A (“A” when it was 2.6 or higher and 2.9 or lower)	B (“B” when it was 2.0 or higher and 2.5 or lower)	2.3									
cyclic (Glu-Phe) [Coriander ID 46]	3.0	AA (“AA” when it was 3.0 or higher)	B (“B” when it was 2.0 or higher and 2.5 or lower)	2.5	2.8	A (“A” when it was 2.6 or higher and 2.9 or lower)	B (“B” when it was 2.0 or higher and 2.5 or lower)	2.5	2.8	A (“A” when it was 2.6 or higher and 2.9 or lower)	A (“A” when it was 2.6 or higher and 2.9 or lower)	2.7									
cyclic (Glu-Tyr) [Coriander ID 19]													2.3	B (“B” when it was 2.0 or higher and 2.5 or lower)	A (“A” when it was 2.6 or higher and 2.9 or lower)	2.8	2.5	B (“B” when it was 2.0 or higher and 2.5 or lower)	A (“A” when it was 2.6 or higher and 2.9 or lower)	2.8	Middle fullness Average [3, 9]: 2.7 points; Middle fullness Evaluation [3, 9]: A (“A” when it was 2.6 or higher and 2.9 or lower); Middle fullness Evaluation [3, 10]: AA (“AA” when it was 3.0 or higher); Middle fullness Average [3, 11]: 3.0 points
cyclic (Gly-Ala) [Coriander ID 57]	2.0	B (“B” when it was 2.0 or higher and 2.5 or lower)	B (“B” when it was 2.0 or higher and 2.5 or lower)	2.2	2.3	B (“B” when it was 2.0 or higher and 2.5 or lower)	A (“A” when it was 2.6 or higher and 2.9 or lower)	2.7	2.0	B (“B” when it was 2.0 or higher and 2.5 or lower)	B (“B” when it was 2.0 or higher and 2.5 or lower)	2.5									
cyclic (Gly-Arg) [Coriander ID 7]	2.5	B (“B” when it was 2.0 or higher and 2.5 or lower)	C (“C” when it was 1.1 or higher and 1.9 or lower)	1.3	3.0	AA (“AA” when it was 3.0 or higher)	C (“C” when it was 1.1 or higher and 1.9 or lower)	1.5	3.2	AA (“AA” when it was 3.0 or higher)	C (“C” when it was 1.1 or higher and 1.9 or lower)	1.7									
cyclic (Gly-Gly) [Coriander ID 54]	2.2	B (“B” when it was 2.0 or higher and 2.5 or lower)	A (“A” when it was 2.6 or higher and 2.9 or lower)	2.8	3.0	AA (“AA” when it was 3.0 or higher)	B (“B” when it was 2.0 or higher and 2.5 or lower)	2.3	2.5	B (“B” when it was 2.0 or higher and 2.5 or lower)	A (“A” when it was 2.6 or higher and 2.9 or lower)	2.7									
cyclic (Gly-His) [Coriander ID 4]	2.8	A (“A” when it was 2.6 or higher and 2.9 or lower)	B (“B” when it was 2.0 or higher and 2.5 or lower)	2.3	3.5	AA (“AA” when it was 3.0 or higher)	B (“B” when it was 2.0 or higher and 2.5 or lower)	2.5	3.3	AA (“AA” when it was 3.0 or higher)	A (“A” when it was 2.6 or higher and 2.9 or lower)	2.7									
cyclic (Gly-Leu/Ile) [Coriander ID 25]													3.0	AA (“AA” when it was 3.0 or higher)	A (“A” when it was 2.6 or higher and 2.9 or lower)	2.8	3.0	AA (“AA” when it was 3.0 or higher)	A (“A” when it was 2.6 or higher and 2.9 or lower)	2.7	Middle fullness Average [3, 9]: 2.7 points; Middle fullness Evaluation [3, 9]: A (“A” when it was 2.6 or higher and 2.9 or lower); Middle fullness Evaluation [3, 10]: A (“A” when it was 2.6 or higher and 2.9 or lower); Middle fullness Average [3, 11]: 2.7 points
cyclic (Gly-Phe) [Coriander ID 28]													2.7	A (“A” when it was 2.6 or higher and 2.9 or lower)	B (“B” when it was 2.0 or higher and 2.5 or lower)	2.3	3.2	AA (“AA” when it was 3.0 or higher)	B (“B” when it was 2.0 or higher and 2.5 or lower)	2.5	Middle fullness Average [3, 9]: 3.2 points; Middle fullness Evaluation [3, 9]: AA (“AA” when it was 3.0 or higher); Middle fullness Evaluation [3, 10]: B (“B” when it was 2.0 or higher and 2.5 or lower); Middle fullness Average [3, 11]: 2.5 points
